According to patent US8877185B2, “Managing and treating keloids” (priority 2012, dated 2014):

System: keloid
Test: Irritation at the keloid site following application of capsaicin
Format: in vivo, human
Conditions: topical, rubbed on the keloid; Capzasin HP 0.1% capsaicin
Source text: In an embodiment, a method of treating or managing a keloid includes firstly removing flurandrenolide tape (or CORDRAN® (flurandrenolide) tape) by peeling it off the keloid and secondly, cleaning the keloid with water and soap, and then drying the keloid with a cloth or a paper towel. After the keloid is dried, graphites ointment is applied in a manner that includes completely or partially covering the keloid with the graphites ointment. Graphites 6C ointment is available in the open market, for example, sold on the interne by a number of companies such as Pomade, Nelson, Boiron, or SBL. […] In an aspect of the method of treatment, witch hazel ointment is applied to the keloid evenly on the keloid either separately or together with graphites. Witch hazel (Hamamelis virginiana) is available in the open market as a cream, lotion ointment or liquid. […] The Hamamelis ointment is allowed to be absorbed by the keloid. In an embodiment, capsaicin cream or ointment is applied to the keloid. Capsaicin, 8-Methyl-N-vanillyl-trans-6-nonenamide) (CH3)2CHCH═CH(CH2)4CONHCH2C6H3-4-(OH)-3—(OCH3)) is the active composition or mixture of chili peppers, which are plants belonging to the genus Capsicum. Capsaicin may be obtained over-the-counter as for example, Capzasin HP 0.1% capsaicin (brand name CHATTEM Registered Trade mark, by Chattem Inc., TN). […]

COc1cc(CNC(=O)CCCC/C=C/C(C)C)ccc1O [Capsaicin, 8-Methyl-N-vanillyl-trans-6-nonenamide]
Period of intense irritation or pain at the site of the keloid following application: about 30 minutes
